This note sets out measurements from BindingDB's records for patent US11752138 (Vanderbilt University, 2023).

Each structure is given as a SMILES string. Where only a bound is given, the exact number is not on record here.

The nature of the assay: Inhibition of LDHB Activity. As for the experimental part:
This example describes a human LDHB biochemical assay employed in the characterization of a compound of Formula I in an embodiment of the dislcosure.Test compounds were placed in a Greiner Bio-One (Monroe, N.C.) 1536-well black solid bottom assay plate. 200 mM Tris HCl, pH 7.4, 100 μM EDTA and 0.01% TWEEN-20 , final concentration, was used as the assay buffer. The LDHB reagent was 2 nM Human LDHB (Meridian Life Science, Inc., Memphis, Tenn.), final concentration, in assay buffer. The substrate reagent was 0.13 mM NADH and 0.16 mM sodium pyruvate, final concentration, in assay buffer. The resazurin/diaphorase coupling reagent was 0.037 mM resazurin and 0.133 mg/mL diaphorase, final concentration, in assay buffer.

For the compound `CC1CC=C(c2cc(-c3nn(-c4nc(C(=O)O)cs4)c(CC4CC4)c3Cc3ccc(S(N)(=O)=O)c(F)c3)ccc2F)CC1` (configuration not stated) [US11752138, Compound 101], the IC50 is less than 100 nM.

`CC1CCCC=C1c1cc(-c2nn(-c3nc(C(=O)O)cs3)c(CC3CC3)c2Cc2ccc(S(N)(=O)=O)c(F)c2)ccc1F` (configuration not stated) [US11752138, Compound 103]: the IC50 is less than 100 nM.

`COC1CC=C(c2cc(-c3nn(-c4nc(C(=O)O)cs4)c(CC4CC4)c3Cc3ccc(S(N)(=O)=O)c(F)c3)ccc2F)CC1` (configuration not stated) [US11752138, Compound 104]: the IC50 was less than 100 nM.

On to `CC1(C)CC=C(c2cc(-c3nn(-c4nc(C(=O)O)cs4)c(CC4CC4)c3Cc3ccc(S(N)(=O)=O)c(F)c3)ccc2F)CC1` [US11752138, Compound 106], for which the IC50 is less than 100 nM.

In the case of `Cc1ncc(C#Cc2cc(-c3nn(-c4nc(C(=O)O)cs4)c(CC4CC4)c3Cc3ccc(S(N)(=O)=O)c(F)c3)ccc2F)s1` [US11752138, Compound 111], the IC50 is less than 100 nM.

In turn, `Cc1ccc(C#Cc2cccc(-c3nn(-c4nc(C(=O)O)cs4)c(CC4CC4)c3Cc3ccc(S(N)(=O)=O)c(F)c3)c2)s1` [US11752138, Compound 112] displayed an IC50 of less than 100 nM.

In turn, `Cc1ccc(C#Cc2cc(-c3nn(-c4nc(C(=O)O)cs4)c(CCC4CC4)c3Cc3ccc(S(N)(=O)=O)c(F)c3)ccc2F)s1` [US11752138, Compound 113] gave a half-inhibitory concentration (IC50) of less than 100 nM.

The compound `Cc1cnc(C#Cc2cc(-c3nn(-c4nc(C(=O)O)cs4)c(CC4CC4)c3Cc3ccc(S(N)(=O)=O)c(F)c3)ccc2F)s1` [US11752138, Compound 114] returned an IC50 of less than 100 nM.

For the compound `Cc1ccc(C#Cc2cccc(-c3nn(-c4nc(C(=O)O)cs4)c(CCC4CC4)c3Cc3ccc(S(N)(=O)=O)c(F)c3)c2)s1` [US11752138, Compound 115], the IC50 was less than 100 nM.

In the case of `NS(=O)(=O)c1ccc(Cc2c(-c3cccc(C#Cc4ccc(Cl)s4)c3)nn(-c3nc(C(=O)O)cs3)c2CC2CC2)cc1F` [US11752138, Compound 118], the IC50 is less than 100 nM.

In turn, `Cc1ccc(/C=C/c2cccc(-c3nn(-c4nc(C(=O)O)cs4)c(CC4CC4)c3Cc3ccc(S(N)(=O)=O)c(F)c3)c2)s1` [US11752138, Compound 119] had an IC50 of less than 100 nM.

Compound `Cc1ccsc1C#Cc1cccc(-c2nn(-c3nc(C(=O)O)cs3)c(CC3CC3)c2Cc2ccc(S(N)(=O)=O)c(F)c2)c1` [US11752138, Compound 120] had an IC50 of less than 100 nM.

Compound `NS(=O)(=O)c1ccc(Cc2c(-c3cccc(C#Cc4ccc(C(F)F)s4)c3)nn(-c3nc(C(=O)O)cs3)c2CC2CC2)cc1F` [US11752138, Compound 121] had a concentration for half-maximal inhibition (IC50) of less than 100 nM.

As for `Cc1cnc(C#Cc2cccc(-c3nn(-c4nc(C(=O)O)cs4)c(CC4CC4)c3Cc3ccc(S(N)(=O)=O)c(F)c3)c2)o1` [US11752138, Compound 122], the IC50 was less than 100 nM.

The compound `Cc1ccc(C#Cc2cccc(-c3nn(-c4nc(C(=O)O)cs4)c(CC4(C)CC4)c3Cc3ccc(S(N)(=O)=O)c(F)c3)c2)s1` [US11752138, Compound 123] returned an IC50 of less than 100 nM.

In turn, `Cc1cc(C)c(C#Cc2cccc(-c3nn(-c4nc(C(=O)O)cs4)c(CC4CC4)c3Cc3ccc(S(N)(=O)=O)c(F)c3)c2)s1` [US11752138, Compound 125] showed an IC50 of less than 100 nM.

In turn, `Cc1ccc(C#Cc2cccc(-c3nn(-c4nc(C(=O)O)cs4)c(CC4CC4)c3Cc3ccc(S(N)(=O)=O)c(F)c3)c2)o1` [US11752138, Compound 129] came in with an IC50 of less than 100 nM.

In turn, `Cc1ccc(C2CC2c2cccc(-c3nn(-c4nc(C(=O)O)cs4)c(CC4CC4)c3Cc3ccc(S(N)(=O)=O)c(F)c3)c2)s1` (configuration not stated) [US11752138, Compound 130] had an IC50 of less than 100 nM.

Regarding `Cc1ccc(-c2cc(-c3nn(-c4nc(C(=O)O)cs4)c(CC4CC4)c3Cc3ccc(S(N)(=O)=O)c(F)c3)ccc2F)cc1F` [US11752138, Compound 137], the IC50 is less than 100 nM.

Compound `CC(=O)c1cc(-c2nn(-c3nc(C(=O)O)cs3)c(CC3CC3)c2Cc2ccc(S(N)(=O)=O)c(F)c2)ccc1F` [US11752138, Compound 140] returned an IC50 of less than 100 nM.

In turn, `COc1ccc(-c2cc(-c3nn(-c4nc(C(=O)O)cs4)c(CC4CC4)c3Cc3ccc(S(N)(=O)=O)c(F)c3)ccc2F)cc1C` [US11752138, Compound 150] had a half-inhibitory concentration (IC50) of less than 100 nM.

In the case of `NS(=O)(=O)c1ccc(Cc2c(-c3ccc(F)c(NC(=O)c4ccccc4)c3)nn(-c3nc(C(=O)O)cs3)c2CC2CC2)cc1F` [US11752138, Compound 152], the IC50 is less than 100 nM.

`COc1cc(OC)cc(-c2cc(-c3nn(-c4nc(C(=O)O)cs4)c(CC4CC4)c3Cc3ccc(S(N)(=O)=O)c(F)c3)ccc2F)c1` [US11752138, Compound 153] yielded an IC50 of less than 100 nM.

Compound `NS(=O)(=O)c1ccc(Cc2c(-c3ccc(F)c(-c4cc(F)cc(F)c4)c3)nn(-c3nc(C(=O)O)cs3)c2CC2CC2)cc1F` [US11752138, Compound 156] showed an IC50 of less than 100 nM.

The compound `CC(C)N1CC2(CN(c3cc(-c4nn(-c5nc(C(=O)O)cs5)c(CC5CC5)c4Cc4ccc(S(N)(=O)=O)c(F)c4)ccc3F)C2)C1` [US11752138, Compound 158] yielded a half-maximal inhibitory concentration (IC50) of less than 100 nM.

For `NS(=O)(=O)c1ccc(Cc2c(-c3ccc(F)c(-c4ncc[nH]4)c3)nn(-c3nc(C(=O)O)cs3)c2CC2CC2)cc1F` [US11752138, Compound 159], the IC50 is less than 100 nM.

On to `Cc1ncc(-c2cc(-c3nn(-c4nc(C(=O)O)cs4)c(CC4CC4)c3Cc3ccc(S(N)(=O)=O)c(F)c3)ccc2F)[nH]1` [US11752138, Compound 161], for which the IC50 is less than 100 nM.

In turn, `NS(=O)(=O)c1ccc(Cc2c(-c3cccc(-c4ccc(Cl)c(F)c4)c3)nn(-c3nc(C(=O)O)cs3)c2CC2CC2)cc1F` [US11752138, Compound 164] came in with an IC50 of less than 100 nM.

`COc1ccc(-c2cccc(-c3nn(-c4nc(C(=O)O)cs4)c(CC4CC4)c3Cc3ccc(S(N)(=O)=O)c(F)c3)c2)cc1C` [US11752138, Compound 165] returned an IC50 of less than 100 nM.

Take `NS(=O)(=O)c1ccc(Cc2c(-c3cccc(-c4ccc(Cl)cc4)c3)nn(-c3nc(C(=O)O)cs3)c2CC2CC2)cc1F` [US11752138, Compound 166]: the IC50 was less than 100 nM.

In turn, `Cc1ccc(-c2cccc(-c3nn(-c4nc(C(=O)O)cs4)c(CC4CC4)c3Cc3ccc(S(N)(=O)=O)c(F)c3)c2)cc1F` [US11752138, Compound 167] gave an IC50 of less than 100 nM.

The compound `CC(C)c1ccc(-c2cccc(-c3nn(-c4nc(C(=O)O)cs4)c(CC4CC4)c3Cc3ccc(S(N)(=O)=O)c(F)c3)c2)cc1` [US11752138, Compound 169] registered an IC50 of less than 100 nM.

As for `CC(C)c1cccc(-c2cccc(-c3nn(-c4nc(C(=O)O)cs4)c(CC4CC4)c3Cc3ccc(S(N)(=O)=O)c(F)c3)c2)c1` [US11752138, Compound 173], the IC50 is less than 100 nM.

In the case of `NS(=O)(=O)c1ccc(Cc2c(-c3cccc(-c4cccc(Cl)c4)c3)nn(-c3nc(C(=O)O)cs3)c2CC2CC2)cc1F` [US11752138, Compound 175], the IC50 was less than 100 nM.

Compound `N#Cc1ccc(-c2cccc(-c3nn(-c4nc(C(=O)O)cs4)c(CC4CC4)c3Cc3ccc(S(N)(=O)=O)c(F)c3)c2)cc1` [US11752138, Compound 176] gave an IC50 of less than 100 nM.

In the case of `CN(C)c1ccc(-c2cccc(-c3nn(-c4nc(C(=O)O)cs4)c(CC4CC4)c3Cc3ccc(S(N)(=O)=O)c(F)c3)c2)cc1` [US11752138, Compound 178], the IC50 is less than 100 nM.

Regarding `Cc1ccc(C#Cc2cc(-c3nn(-c4nc(C(=O)O)cs4)c(CC4CC4)c3Cc3ccc(S(N)(=O)=O)c(F)c3)ccc2F)s1` [US11752138, Compound 249], the IC50 was less than 100 nM.
